# Results published in patent US20110040086A1, “Novel Beta-Lactam Antibiotics, Methods for Their Production, and Their Use” (DRITTE PATENTPORTFOLIO BETEILIGUNGSGESELLSCHAFT MB, priority 2007, published 2011).
# Tests used:
# S. aureus 520 = test: agar diffusion test (Test System II, multi-resistant germs); type: cell-based, Staphylococcus aureus; set-up: key: r = resistant (no detectable zone of inhibition)
# Protocol: (§1) The test substances are deposited in stepped quantities (10 μg, 50 μg, 100 μg) onto active ingredient carriers (sensi-discs). For this purpose, the test substances are dissolved in methanol or A. dest. according to their solubility. Each inoculated plate is fitted with 3 test sheets.
# (§2) Test System II (Effect Against Multi-Resistant Germs)
# (§3) For this purpose, bacteria is cultivated on Müller-Hinton-Agar II plates.
# (§4) With 1-1.5 ml physiological saline solution, a bacteria suspension of McFarland 0.5 (corresponds to a bacteria density of 150×10^6 germs) is produced. Then, with a sterile glass rod, a small drop of bacteria suspension is placed on the Müller-Hinton-Agar plate and coated in three layers (vertical, horizontal, and transverse). Thereafter, the sensi-discs with the novel semi-synthetic test substances are placed on top. The fitted plates are incubated for 18-20 hours at 37° C. After incubation, the diameters of the zones of inhibition are read as a measure for the antimicrobial activity of the novel semi-synthetic test substances.
# S. aureus 33490 = test: as above; type: cell-based, Staphylococcus aureus; set-up: key: r = resistant (no detectable zone of inhibition)
# Protocol: as §1, §2, §3, §4
# S. aureus 34289 = test: as above; type: cell-based, Staphylococcus aureus; set-up: key: r = resistant (no detectable zone of inhibition)
# Protocol: as §1, §2, §3, §4
# S. aureus 526 = test: as above; type: cell-based, Staphylococcus aureus; set-up: key: r = resistant (no detectable zone of inhibition)
# Protocol: as §1, §2, §3, §4
# [1] = tested on: S. aureus North Germany strain; test: as above; type: cell-based, Staphylococcus aureus; set-up: key: r = resistant (no detectable zone of inhibition)
# Protocol: as §1, §2, §3, §4
# S. aureus 36881 = test: as above; type: cell-based, Staphylococcus aureus; set-up: key: r = resistant (no detectable zone of inhibition)
# Protocol: as §1, §2, §3, §4
# S. aureus 39105 = test: as above; type: cell-based, Staphylococcus aureus; set-up: key: r = resistant (no detectable zone of inhibition)
# Protocol: as §1, §2, §3, §4
# [2] = tested on: Bacillus megaterium SBUG 1152; test: agar diffusion test (Test System 1, antimicrobial effect); type: cell-based
# Protocol: (§5) Test System 1 (Antimicrobial Effect)
# (§6) The test germs Escherichia coli SBUG 1135 and Bacillus megaterium SBUG 1152 are drawn overnight (17 hours at 37° C.) in 5 ml nutrient medium II. The incubation is performed in a shaking incubator (INFORS AG CH 4103, Bottmingen, Switzerland) at a shaking frequency of 180 rpm.
# (§7) After 17 h incubation time, Escherichia coli has reached a cell density of ca. 2.4×10^10 cells/ml and Bacillus megaterium a cell density of ca. 2.1×10^8 cells/ml.
# (§8) The seeding of bacteria in agar is selected so that, dense, but not confluent individual colonies develop after the incubation.
# Bacillus megaterium: 0.1 ml of non-diluted overnight culture (ÜN) in 10 ml nutrient agar corresponds to a cell count of 10^6.
# (§9) The inoculated nutrient agar is set in sterile Petri dishes and left standing for a few minutes for drying.
# as §1
# (§10) After a 20-hour incubation time at 37° C., the zones of inhibition around the individual test sheets could be measured. The diameter of the zone of inhibition is specified in mm.
# E. faecalis 945 = test: agar diffusion test (Test System II, multi-resistant germs); type: cell-based, Enterococcus faecalis; set-up: key: r = resistant (no detectable zone of inhibition)
# Protocol: as §1, §2, §3, §4
# [3] = tested on: Escherichia coli SBUG 1135; test: agar diffusion test (Test System 1, antimicrobial effect); type: cell-based; set-up: key: r = resistant (no detectable zone of inhibition)
# Protocol: as §5, §6, §7, §8
# Escherichia coli: the ÜN is diluted 1:100 with physiological saline solution, of which 0.1 ml is converted into 10 ml nutrient agar. That corresponds to a cell count of 10^6.
# as §9, §1, §10
# S. epidermidis 1071 = test: agar diffusion test (Test System II, multi-resistant germs); type: cell-based, Staphylococcus epidermidis; set-up: key: r = resistant (no detectable zone of inhibition)
# Protocol: as §1, §2, §3, §4
# S. epidermidis 847 = test: as above; type: cell-based, Staphylococcus epidermidis; set-up: key: r = resistant (no detectable zone of inhibition)
# Protocol: as §1, §2, §3, §4
# S. epidermidis 563 = test: as above; type: cell-based, Staphylococcus epidermidis; set-up: key: r = resistant (no detectable zone of inhibition)
# Protocol: as §1, §2, §3, §4
# S. epidermidis 1068 = test: as above; type: cell-based, Staphylococcus epidermidis; set-up: key: r = resistant (no detectable zone of inhibition)
# Protocol: as §1, §2, §3, §4
# B. subtilis AWD 166 = test: agar diffusion test (antimicrobial effect); type: cell-based, Bacillus subtilis
# Protocol: as §8, §9, §1, §10
# S. epidermidis 125 = test: agar diffusion test (Test System II, multi-resistant germs); type: cell-based, Staphylococcus epidermidis
# Protocol: as §1, §2, §3, §4
# S. aureus 38418 = test: as above; type: cell-based, Staphylococcus aureus
# Protocol: as §1, §2, §3, §4
# S. aureus ATCC 6538 = test: as above; type: cell-based, Staphylococcus aureus
# Protocol: as §1, §2, §3, §4
# [4] = tested on: Staphylococcus aureus 315; test: as above; type: cell-based; set-up: key: r = resistant (no detectable zone of inhibition)
# Protocol: as §1, §2, §3, §4
# [5] = tested on: Enterococcus faecalis 769; test: as above; type: cell-based; set-up: key: r = resistant (no detectable zone of inhibition)
# Protocol: as §1, §2, §3, §4
compound,measurement,setting,value
"COC(=O)C1=C(NC(C(=O)NC2C(=O)N3C(C(=O)O)=C(C)CSC23)c2ccc(O)cc2)C(=O)C=CC1=O (stereo not drawn) [1c, 7-[2-(4-hydroxyphenyl)-2-(2-methoxycarbonyl-3,6-dioxocyclohexa-1,4-dienylamino)-acetylamino]-desacetoxycephalosporanic acid]",Diameter of zone of inhibition,S. aureus 520; Quantity n [mol] 0.019,r
same,Diameter of zone of inhibition,S. aureus 520; Quantity n [mol] 0.1,r
same,Diameter of zone of inhibition,S. aureus 520; Quantity n [mol] 0.19,r
same,Diameter of zone of inhibition,S. aureus 33490; Quantity n [μmol] 0.019,r
same,Diameter of zone of inhibition,S. aureus 33490; Quantity n [μmol] 0.1,14 mm
same,Diameter of zone of inhibition,S. aureus 33490; Quantity n [μmol] 0.19,20 mm
same,Diameter of zone of inhibition,S. aureus 34289; Quantity n [mol] 0.019,r
same,Diameter of zone of inhibition,S. aureus 34289; Quantity n [mol] 0.1,r
same,Diameter of zone of inhibition,S. aureus 34289; Quantity n [mol] 0.19,r
same,Diameter of zone of inhibition,S. aureus 526; Quantity n 0.019,r
same,Diameter of zone of inhibition,S. aureus 526; Quantity n 0.1,r
same,Diameter of zone of inhibition,S. aureus 526; Quantity n 0.19,r
same,Diameter of zone of inhibition,[1]; Quantity n 0.019,r
same,Diameter of zone of inhibition,[1]; Quantity n 0.1,10 mm
same,Diameter of zone of inhibition,[1]; Quantity n 0.19,14 mm
same,Diameter of zone of inhibition,S. aureus 36881; Quantity n 0.019,r
same,Diameter of zone of inhibition,S. aureus 36881; Quantity n 0.1,r
same,Diameter of zone of inhibition,S. aureus 36881; Quantity n 0.19,14 mm
same,Diameter of zone of inhibition,S. aureus 39105; Quantity n 0.019,r
same,Diameter of zone of inhibition,S. aureus 39105; Quantity n 0.1,r
same,Diameter of zone of inhibition,S. aureus 39105; Quantity n 0.19,12 mm
same,Diameter of zone of inhibition,[2]; Quantity n 0.019,22 mm
same,Diameter of zone of inhibition,[2]; Quantity n 0.1,30 mm
same,Diameter of zone of inhibition,[2]; Quantity n 0.19,32 mm
same,Diameter of zone of inhibition,E. faecalis 945; Quantity n 0.019,r
same,Diameter of zone of inhibition,E. faecalis 945; Quantity n 0.1,r
same,Diameter of zone of inhibition,E. faecalis 945; Quantity n 0.19,r
same,Diameter of zone of inhibition,[3]; Quantity n 0.019,r
same,Diameter of zone of inhibition,[3]; Quantity n 0.1,14 mm
same,Diameter of zone of inhibition,[3]; Quantity n 0.19,18 mm
same,Diameter of zone of inhibition,S. epidermidis 1071; Quantity n 0.019,r
same,Diameter of zone of inhibition,S. epidermidis 1071; Quantity n 0.1,14 mm
same,Diameter of zone of inhibition,S. epidermidis 1071; Quantity n 0.19,20 mm
same,Diameter of zone of inhibition,S. epidermidis 847; Quantity n [mol] 0.019,r
same,Diameter of zone of inhibition,S. epidermidis 847; Quantity n [mol] 0.1,14 mm
same,Diameter of zone of inhibition,S. epidermidis 847; Quantity n [mol] 0.19,18 mm
same,Diameter of zone of inhibition,S. epidermidis 563; Quantity n 0.019,r
same,Diameter of zone of inhibition,S. epidermidis 563; Quantity n 0.1,14 mm
same,Diameter of zone of inhibition,S. epidermidis 563; Quantity n 0.19,20 mm
same,Diameter of zone of inhibition,S. epidermidis 1068; Quantity n 0.019,r
same,Diameter of zone of inhibition,S. epidermidis 1068; Quantity n 0.1,14 mm
same,Diameter of zone of inhibition,S. epidermidis 1068; Quantity n 0.19,20 mm
same,Diameter of zone of inhibition,B. subtilis AWD 166; Quantity n 0.019,22 mm
same,Diameter of zone of inhibition,B. subtilis AWD 166; Quantity n 0.1,30 mm
same,Diameter of zone of inhibition,B. subtilis AWD 166; Quantity n 0.19,32 mm
same,Diameter of zone of inhibition,S. epidermidis 125; Quantity n 0.019,12 mm
same,Diameter of zone of inhibition,S. epidermidis 125; Quantity n 0.1,24 mm
same,Diameter of zone of inhibition,S. epidermidis 125; Quantity n 0.19,28 mm
same,Diameter of zone of inhibition,S. aureus 38418; Quantity n [mol] 0.019,10 mm
same,Diameter of zone of inhibition,S. aureus 38418; Quantity n [mol] 0.1,22 mm
same,Diameter of zone of inhibition,S. aureus 38418; Quantity n [mol] 0.19,28 mm
same,Diameter of zone of inhibition,S. aureus ATCC 6538; Quantity n 0.019,18 mm
same,Diameter of zone of inhibition,S. aureus ATCC 6538; Quantity n 0.1,26 mm
same,Diameter of zone of inhibition,S. aureus ATCC 6538; Quantity n 0.19,30 mm
same,Diameter of zone of inhibition,[4]; Quantity n 0.019,r
same,Diameter of zone of inhibition,[4]; Quantity n 0.1,r
same,Diameter of zone of inhibition,[4]; Quantity n 0.19,12 mm
same,Diameter of zone of inhibition,[5]; Quantity n 0.019,r
same,Diameter of zone of inhibition,[5]; Quantity n 0.1,r
same,Diameter of zone of inhibition,[5]; Quantity n 0.19,r
